# Activity calls are given as the source filed them. The rule behind the calls is not given here.
# What was measured:
# Rattus norvegicus [1] = organism: Rattus norvegicus; assay: Induction of ethanol-derived blood acetaldehyde level in 0.1% phenobarbital for 8 days pretreated Sprague-Dawley rat measured after 2 hrs of acute ethanol dose; assay type: functional, organism-based
# Rattus norvegicus [2] = organism: Rattus norvegicus; assay: Inhibition of Sprague-Dawley rat liver mitochondrial aldehyde dehydrogenase at 1 mM measured immediately after compound addition at 38 degC in presence of 0.25 M sucrose relative to control
# Rattus norvegicus [3] = organism: Rattus norvegicus; assay: Inhibition of Sprague-Dawley rat liver mitochondrial aldehyde dehydrogenase at 1 mM after 5 mins at 25 degC in presence of 0.25 M sucrose relative to control
# Rattus norvegicus [4] = organism: Rattus norvegicus; assay: Inhibition of Sprague-Dawley rat liver mitochondrial aldehyde dehydrogenase assessed as complete inhibition at 1 mM measured after 5 to 10 mins at 38 degC in presence of 0.25 M sucrose
# Liver microsome = assay: Drug level in Sprague-Dawley rat liver microsomes treated with phenobarbital by GC-MS analysis in presence of NADPH; assay type: ADME
# Rattus norvegicus [5] = organism: Rattus norvegicus; assay: Inhibition of Sprague-Dawley rat liver mitochondrial aldehyde dehydrogenase at 1 mM at 38 degC in presence of 0.25 M sucrose relative to control; details: TDE = time-dependent effect
# Rattus norvegicus [6] = organism: Rattus norvegicus; assay: Inhibition of Sprague-Dawley rat liver mitochondrial aldehyde dehydrogenase at 1 mM after 5 mins at 0 degC in presence of 0.25 M sucrose relative to control
# Rattus norvegicus [7] = organism: Rattus norvegicus; assay: Irreversible inhibition of Sprague-Dawley rat liver mitochondrial aldehyde dehydrogenase at 1 mM incubated for 10 mins at 38 degC in presence of 0.25 M sucrose followed by compound washout measured relative to control
inhibition (Rattus norvegicus [2]),inhibition (Rattus norvegicus [3]),inhibition (Rattus norvegicus [4]),Drug metabolism (Liver microsome),inhibition (Rattus norvegicus [5]),inhibition (Rattus norvegicus [6]),inhibition (Rattus norvegicus [7]),Compound,Activity (Rattus norvegicus [1])
,,,,,,,C#CCN(C)Cc1ccccc1,Active
43%,45%,Active,metabolite_detected,tde,32%,Active,C#CC=O [PROPYNAL],

# From ChEMBL document CHEMBL3228041, “Propiolaldehyde, a pargyline metabolite that irreversibly inhibits aldehyde dehydrogenase. Isolation from a hepatic microsomal system” (J Med Chem, 1979)
